The values that follow come from US8426463B2, “[((1R,2S,5R)-2-isopropyl-5-methyl-cyclohexanecarbonyl)-amino]-acetic acid isopropyl ester and related compounds and their use in therapy” (priority 2011, dated 2013).

Assay [1] relates to philtrum skin (keratinized stratified epithelium). Briefly: Philtrum assay: duration of cooling on keratinized stratified epithelium. In kind it is in vivo, human. The note with it: applied to the philtrum skin at 5 mg/mL in Aquaphor ointment. From the text: Bioassay on Keratinized Stratified Epithelium: Philtrum Assay
The philtrum is the midline groove above the border of the upper lip. The site of drug testing was the skin above the upper lip (above the vermilion border of the lips), on the philtrum, lateral to the philtrum until the nasolabial folds, and sometimes on the lower nostrils (subnasale). This part of the face is known to be densely innervated with cool/cold receptors, second only to the surfaces of the eyeball and anogenitalia. It is also known from the scientific literature that the area around the lips has a high density of “cold spots” (see, e.g., Dhaka et al., “Visualizing cold spots: TRPM8-expressing sensory neurons and their projections”, J. Neuroscience, Vol. 28, pp. 566-575, 2008).
To test for anti-nociceptive activity, the test substance is first dissolved (5 mg/mL) in an ointment (Aquaphor®, which is 41% petrolatum, and the rest mineral oil, ceresin and lanolin alcohol) and singly applied (40 to 70 mg) onto the philtrum skin surface using a plastic stick.
At this locus, cool and cold sensations in the skin may be experienced and rated for time of onset and intensity. The intensity of the subjective skin sensation is rated as 0, 1, 2 or 3 with: 0 as no change; 1 as slight coolness, or cold; 2 as clear-cut signal of coolness or cold; and 3 as robust cooling or cold. The intervals for recording are 5 to 10 minutes, until two successive zeroes are obtained. The onset of drug action is taken as the time to reach 2 units of coolness intensity, and offset of drug action is the time when coolness intensity drops below 2, after previously surpassing 2 units. The duration of cooling action is defined as the offset time minus the onset time.

For a further assay, the system named is cough. Briefly: Study 5: ODT in a smoker with chili pepper induced coughing fit. In kind it is in vivo, human. The note with it: two ODT tablets (2.5 mg each); one subject. The procedure: A venture capitalist lived a stress-filled life and smoked two packs of cigarettes per day. […] They tried the ODT containing 2.5 mg of Gly-O-iPr and said that it felt great, but they were afraid that if they used it, they would smoke more. Later that evening, they went to a banquet of Northern Chinese cuisine and they started coughing when they ate a piece of fish that was heavily spiced with chili peppers. Everyone at the dinner table was alarmed by their coughing fit which was quite intense and made their face turn bright red.

In assay [2] the test system is pharyngeal and esophageal receptors. Briefly: Cooling sensations in the chest after Gly-O-iPr with or without icilin. On the set-up: species or system human. The following applies: in vivo. The text has this: The cooling sensations in the chest that result from the Gly-O-iPr/icilin combination may provide symptomatic relief of discomfort in the airways (larynx, trachea, bronchi) in conditions such as asthma and COPD.

In the case of `CC(C)OC(=O)CNC(=O)[C@@H]1C[C@H](C)CC[C@H]1C(C)C` [Gly-O-iPr, [((1R,2S,5R)-2-isopropyl-5-methyl-cyclohexanecarbonyl)-amino]-acetic acid isopropyl ester], the “Keratinized Stratified Epithelia Philtrum Skin (min), duration of cooling” value in assay [1] came to 27 min. Moreover, in the assay with cough, the “effect on coughing fit” value was “the cough stopped within a few minutes”. The “cooling sensations in the chest” value in assay [2] was “less effective”.
